# Tests used:
# Type in all cases: cell-based
# [1] = system: OVCAR-4; assay: NCI60 cell growth and viability: OVCAR-4; conditions: OVCAR-4, Ovarian Cancer, two days
# [2] = system: A549/ATCC; assay: NCI60 cell growth and viability: A549/ATCC; conditions: Non-Small Cell Lung Cancer, two days
# [3] = system: HT29; assay: NCI60 cell growth and viability: HT29; conditions: HT29, Colon Cancer, two days
# [4] = system: UACC-62; assay: NCI60 cell growth and viability: UACC-62; conditions: UACC-62, Melanoma, two days
# [5] = system: NCI-H460; conditions: NCI-H460, Non-Small Cell Lung Cancer, two days
# [6] = system: RXF 393; assay: NCI60 cell growth and viability: RXF 393; conditions: RXF 393, Renal Cancer, two days
# [7] = system: SK-MEL-28; assay: NCI60 cell growth and viability: SK-MEL-28; conditions: SK-MEL-28, Melanoma, two days
# [8] = system: U251; assay: NCI60 cell growth and viability: U251; conditions: U251, CNS Cancer, two days
# [9] = system: SW-620; assay: NCI60 cell growth and viability: SW-620; conditions: SW-620, Colon Cancer, two days
# [10] = system: MOLT-4; assay: NCI60 cell growth and viability: MOLT-4; conditions: MOLT-4, Leukemia, two days
# [11] = system: LOX IMVI; assay: NCI60 cell growth and viability: LOX IMVI; conditions: Melanoma, two days
# [12] = system: HOP-92; assay: NCI60 cell growth and viability: HOP-92; conditions: HOP-92, Non-Small Cell Lung Cancer, two days
# [13] = system: CCRF-CEM; assay: NCI60 cell growth and viability: CCRF-CEM; conditions: Leukemia, two days
# [14] = system: SF-295; assay: NCI60 cell growth and viability: SF-295; conditions: SF-295, CNS Cancer, two days
# [15] = system: HCC-2998; assay: NCI60 cell growth and viability: HCC-2998; conditions: HCC-2998, Colon Cancer, two days
# [16] = system: 786-0; assay: NCI60 cell growth and viability: 786-0; conditions: 786-0, Renal Cancer, two days
# [17] = system: BT-549; assay: NCI60 cell growth and viability: BT-549; conditions: BT-549, Breast Cancer, two days
# [18] = system: PC-3; assay: NCI60 cell growth and viability: PC-3; conditions: PC-3, Prostate Cancer, two days
# [19] = system: MDA-MB-231; assay: NCI60 cell growth and viability: MDA-MB-231; conditions: MDA-MB-231, Breast Cancer, two days
# [20] = system: cancer cell lines in the NCI60 collection; assay: NCI60 collection, cell growth and viability (overall); conditions: incubated for two days, FIG. 8
# Procedure: FIG. 8 is a graph showing the compounds of the disclosure suppress the growth of a broad range of cancer types. […] The cancer origins of the different cell lines are indicated with different colors.
# HSF1 binding compounds were tested for its activity in suppressing the growth of a broad range of cancer types. For example, Compound 0017 was incubated for two days with a diverse series of cancer cell lines in the NCI60 collection and cell growth and viability were measured, and the results are shown in Table 4.
# [21] = system: MCF7; assay: NCI60 cell growth and viability: MCF7; conditions: MCF7, Breast Cancer, two days
# [22] = system: SF-539; assay: NCI60 cell growth and viability: SF-539; conditions: SF-539, CNS Cancer, two days
# [23] = Homo sapiens, 48 h, read-out: log10 [GI50 (M)] (converted)
# [24] = Homo sapiens, 48 h, read-out: log10 [LC50 (M)] (converted)
smiles,measurement,setting,value
"O=C(Nc1ccc(F)cc1)Nc1ccc(Cl)c([N+](=O)[O-])c1 [Compound 0017, 1-(4-chloro-3-nitrophenyl)-3-(4-fluorophenyl)urea]",GI50,[1]; [23],2.75e-06 M
same,CC50,[1]; [24],8.71e-05 M
same,log10 [TGI (M)],[1],−4.85 log10 M
same,GI50,[2]; [23],3.09e-06 M
same,CC50,[2]; [24],≥ 0.0001 M
same,log10 [TGI (M)],[2],−4.79 log10 M
same,log10 [TGI (M)],[3],−4.91 log10 M
same,GI50,"[3]; Homo sapiens, HT-29, 48 h, read-out: log10 [GI50 (M)] (converted)",3.24e-06 M
same,CC50,"[3]; Homo sapiens, HT-29, 48 h, read-out: log10 [LC50 (M)] (converted)",5.37e-05 M
same,GI50,[4]; [23],3.02e-06 M
same,CC50,[4]; [24],3.63e-05 M
same,log10 [TGI (M)],[4],−4.88 log10 M
same,GI50,[5]; [23],2.69e-06 M
same,CC50,[5]; [24],4.57e-05 M
same,log10 [TGI (M)],[5],−4.94 log10 M
same,GI50,[6]; [23],1.74e-06 M
same,CC50,[6]; [24],2.82e-05 M
same,log10 [TGI (M)],[6],−5.17 log10 M
same,GI50,[7]; [23],3.8e-06 M
same,CC50,[7]; [24],3.8e-05 M
same,log10 [TGI (M)],[7],−4.85 log10 M
same,GI50,"[8]; Homo sapiens, U-251, 48 h, read-out: log10 [GI50 (M)] (converted)",3.16e-06 M
same,CC50,"[8]; Homo sapiens, U-251, 48 h, read-out: log10 [LC50 (M)] (converted)",4.37e-05 M
same,log10 [TGI (M)],[8],−4.90 log10 M
same,GI50,[9]; [23],3.47e-06 M
same,CC50,[9]; [24],4.79e-05 M
same,log10 [TGI (M)],[9],−4.86 log10 M
same,GI50,[10]; [23],3.16e-06 M
same,CC50,[10]; [24],≥ 0.0001 M
same,log10 [TGI (M)],[10],−4.03 log10 M
same,GI50,[11]; [23],3.55e-06 M
same,CC50,[11]; [24],4.07e-05 M
same,log10 [TGI (M)],[11],−4.91 log10 M
same,log10 [TGI (M)],[12],−5.21 log10 M
same,GI50,[12]; [23],2.04e-06 M
same,CC50,[12]; [24],2.69e-05 M
same,GI50,[13]; [23],3.31e-06 M
same,CC50,[13]; [24],≥ 0.0001 M
same,log10 [TGI (M)],[13],−4.00 log10 M
same,GI50,[14]; [23],2.29e-06 M
same,CC50,[14]; [24],3.09e-05 M
same,log10 [TGI (M)],[14],−5.10 log10 M
same,log10 [TGI (M)],[15],−4.84 log10 M
same,GI50,[15]; [23],3.72e-06 M
same,CC50,[15]; [24],4.27e-05 M
same,log10 [TGI (M)],[16],−4.88 log10 M
same,GI50,[16]; [23],3.39e-06 M
same,CC50,[16]; [24],3.8e-05 M
same,log10 [TGI (M)],[17],−4.97 log10 M
same,GI50,[17]; [23],2.88e-06 M
same,CC50,[17]; [24],3.31e-05 M
same,GI50,[18]; [23],1.58e-06 M
same,CC50,[18]; [24],4.37e-05 M
same,log10 [TGI (M)],[18],−4.95 log10 M
same,GI50,[19]; [23],2.51e-06 M
same,CC50,[19]; [24],3.39e-05 M
same,log10 [TGI (M)],[19],−5.19 log10 M
same,growth of a broad range of cancer cells,[20],inhibited the growth of a broad range of cancer cells
same,GI50,[21]; [23],2.63e-06 M
same,CC50,[21]; [24],7.08e-05 M
same,log10 [TGI (M)],[21],−4.92 log10 M
same,GI50,[22]; [23],3.89e-06 M
same,CC50,[22]; [24],4.07e-05 M
same,log10 [TGI (M)],[22],−4.84 log10 M
